In EP3677663A1, “NON-ENZYMATIC REMOVAL OF PROTEINACEOUS SOILS” (Henkel AG & Co. KGaA, priority 2019, dated 2020):

Key:
Whey protein = experiment: Hydrolysis of unaltered Whey protein by polyoxometalates, monitored by SDS-PAGE; format: biochemical; details: 60°C, 1.5 mg/ml Whey protein, polyoxometalate 14 mg/ml
Method: (§1) All gels were 100x100x1 mm and the stacking gel was approximately 1 cm long from the bottom of the comb to the top of the resolving gel resulting in a resolving gel of 8 cm. 2. Table 1: Composition of the solutions to prepare 18% resolving and 5% stacking gel.
(§2) After pouring the resolving gel, a thin layer of isopropanol was carefully added on top of the gel. The resolving gel was left 1 hour to harden, and isopropanol was removed before pouring the stacking gel. A 12 well comb was placed inside the stacking gel and left to harden for an additional hour. The finished gels were kept in the fridge.
(§3) Samples were prepared by mixing a 10 µl of sample with 5 µl of 3X sample buffer (225 µl TRIS/HCI buffer (1M, pH 6.8), 630 mg glycerol, 50 mg SDS, 0.5 mg bromophenol blue and 250 µl 1 M DTI), incubating at 95 °C for 5 minutes and centrifuging the samples after they are cooled to room temperature. The wells of the stacking gel were loaded with 10 µl of sample and 5 µl of protein ladder.
(§4) An OmniPAGE electrophoretic cell was combined with an EV243 power supply (both produced by Consort) in experiments at 30 mA/gel and 100 V/gel for the 18% resolving gel (approximately 2.5 hours) and 20 mA/gel and 100 V/gel for the 12% resolving gel (approximately 1.5 hours). As anode and cathode buffer a TRIS/Tricine running buffer (0.1 M TRIS, 0.1 M Tricine and 0.1 wt/vol% SDS) was used for 18% gels and a TRIS/Glycine running buffer (0.2 M Glycine, 0.025 M TRIS and 0.1 wt/vol% SDS) for 12% gels. Before staining the gels were fixed for 1 hour in a 12 wt/vol% TCA solution. The staining was done by leaving the gels in a colloidal coomassie blue solution (700 ml H2O, 100 ml H3PO4, […], 1.2 g coomassie blue and 200 ml methanol) over night and subsequently destained with a heavy destain solution {60 ml methanol, 20 ml acetic acid and 120 ml water) and water. Finally, the gels were analyzed with a Gel Doc EZ imager and Image LabTM Software (both supplied by Bio-Rad). The kinetics of the reactions were studied by plotting the relative intensity of the intact proteins band in function of time and fitted to the exponential expression of a pseudo first-order reaction: I = I0 e^-kobst
(§5) In this equation I represents the intensity in function of time t, I0 the intensity at time 0 and kobs is the observed hydrolysis rate. The half-life (t½) of the intact protein was calculated according to t½ = (ln(2))/(kobs) [formula]
(§6) To solutions of 1.0 mg/ml solution of unaltered Ovalbumin or the Lactose/Ovalbumin Maillard reaction samples of example 4 or of 1.5 mg/ml solution of unaltered Whey protein or the Lactose/Whey protein Maillard reaction samples of example 4 were added the polyoxometalates of examples 1 to 3 at a concentration of 14 mg/ml. The rate of hydrolysis for the proteins at 60°C at pH 4 (sodium citrate buffer, 10 mM) and 9 (glycine/NaOH buffer, 10 mM) was studied over time. Results for the hydrolysis rate and the half-life of the unaltered protein samples are given in tables 5 and 6 and results for the half-life of altered proteinaceous samples of example 4 (treated at pH 9) are given in table 7. Table 5: Hydrolysis of unaltered Whey protein

Ovalbumin = molecular target: T1, Ovalbumin (Gallus gallus, UniProt P01012); experiment: Hydrolysis of unaltered Ovalbumin by polyoxometalates, monitored by SDS-PAGE; format: biochemical, chicken; details: 60°C, 1.0 mg/ml Ovalbumin, polyoxometalate 14 mg/ml
T1 construct: Ovalbumin from chicken egg was purchased from Acros (Mw 44.5 kDa); purchased Acros; host or cells: chicken egg
T1 sequence (P01012 1-386): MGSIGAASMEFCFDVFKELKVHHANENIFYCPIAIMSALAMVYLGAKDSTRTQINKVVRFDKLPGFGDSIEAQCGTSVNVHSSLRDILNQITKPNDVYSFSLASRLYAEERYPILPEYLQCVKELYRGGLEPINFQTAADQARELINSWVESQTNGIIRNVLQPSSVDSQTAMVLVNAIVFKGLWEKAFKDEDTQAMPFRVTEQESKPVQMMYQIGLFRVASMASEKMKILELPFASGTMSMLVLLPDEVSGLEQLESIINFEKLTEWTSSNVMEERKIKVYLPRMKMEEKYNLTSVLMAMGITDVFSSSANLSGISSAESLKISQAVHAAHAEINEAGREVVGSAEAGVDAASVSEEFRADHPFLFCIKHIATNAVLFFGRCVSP
Method: as §1, §2, §3, §4, §5, §6

[1] = pH 4 (sodium citrate buffer, 10 mM)
[2] = pH 9 (glycine/NaOH buffer, 10 mM)

Rate x 10^-3 [min^-1] (Ovalbumin; [1])	Rate x 10^-3 [min^-1] (Ovalbumin; [2])	Substance	Rate x 10^-3 [min^-1] (Whey protein; [1])	Rate x 10^-3 [min^-1] (Whey protein; [2])
6±3 x 10^-3 min^-1	7±3 x 10^-3 min^-1	((C2H5)2NH2)6[Zr2(PW11O39)2] [Zr2Ke2]	3.8±0.8 x 10^-3 min^-1	1±1 x 10^-3 min^-1
6±2 x 10^-3 min^-1	7±1 x 10^-3 min^-1	K10[Ce(PW11O39)2] [CeKe2]	9±5 x 10^-3 min^-1	5.30±0.04 x 10^-3 min^-1
4.3±0.4 x 10^-3 min^-1	5±2 x 10^-3 min^-1	((C2H5)2NH2)10[Zr(PW11O39)2] [ZrKe2]	1.8±0.7 x 10^-3 min^-1	6±1 x 10^-3 min^-1
